Legend:
[1] = target: T1, MGLL (Mus musculus, UniProt O35678); test: In vitro competitive activity-based protein profiling, mouse brain proteome; format: biochemical
T1 construct: Brain; from tissue; host or cells: mouse brain proteome
T1 sequence (O35678 1-303): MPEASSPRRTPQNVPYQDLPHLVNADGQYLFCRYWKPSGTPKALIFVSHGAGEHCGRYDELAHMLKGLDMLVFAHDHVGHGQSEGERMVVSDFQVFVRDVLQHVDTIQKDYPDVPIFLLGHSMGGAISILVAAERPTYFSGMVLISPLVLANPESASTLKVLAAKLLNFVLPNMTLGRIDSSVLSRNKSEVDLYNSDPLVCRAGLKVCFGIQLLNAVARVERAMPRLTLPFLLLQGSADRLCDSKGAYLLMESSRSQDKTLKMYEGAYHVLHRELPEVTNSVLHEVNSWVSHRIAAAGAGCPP
Experimental: [Worded in the source for another species; this species is reported under the same test.] (§1) Proteomes (human prefrontal cortex or cell membrane fractions) (50 μL, 1.0 mg/mL total protein concentration) were preincubated with varying concentrations of inhibitors at 37° C. After 30 min, FP—Rh or HT-01 (1.0 μL, 50 μM in DMSO) was added and the mixture was incubated for another 30 min at room temperature. Reactions were quenched with SDS loading buffer (15 μL-4×) and run on SDS-PAGE.

[2] = target: T2, ABHD6 (Mus musculus, UniProt Q8R2Y0); test: In vitro competitive activity-based protein profiling, mouse brain proteome, ABHD6; format: biochemical; conditions: for IC50: mouse
T2 construct: Brain; from tissue; host or cells: mouse brain proteome
T2 sequence (Q8R2Y0 1-336): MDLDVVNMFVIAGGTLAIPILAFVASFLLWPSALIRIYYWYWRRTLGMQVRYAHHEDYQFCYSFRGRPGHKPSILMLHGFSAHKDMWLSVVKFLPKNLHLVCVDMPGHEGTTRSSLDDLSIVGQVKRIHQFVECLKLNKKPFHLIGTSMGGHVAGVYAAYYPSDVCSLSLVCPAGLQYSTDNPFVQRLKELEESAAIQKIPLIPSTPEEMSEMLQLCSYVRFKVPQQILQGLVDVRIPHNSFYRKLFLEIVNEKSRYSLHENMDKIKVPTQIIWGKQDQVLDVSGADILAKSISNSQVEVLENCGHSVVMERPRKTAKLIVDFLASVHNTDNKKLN
Experimental: [Worded in the source for another target; this target is reported under the same test.] as §1

SMILES | IC50 [1] [nM] | IC50 [2] [nM] | % Inh MGLL Brain (Mouse, μM) [1] | % Inh ABHD6 Brain (Mouse, μM) ([2]; mouse brain proteome)
O=C(OC(C(F)(F)F)C(F)(F)F)N1CC2(CCN(Cc3c(N4CC5COCC5C4)cccc3C(F)(F)F)CC2)C1 (centres unmarked) [Example 33] | 100 to 1000 | 100 to 1000 |  | 
CC(=O)N1CC2CN(c3cc(C(F)(F)F)ccc3CN3CCN(C(=O)OC(C(F)(F)F)C(F)(F)F)CC3)CC2C1 (centres unmarked) [Example 200, 1,1,1,3,3,3-Hexafluoropropan-2-yl 4-(2-(5-acetylhexahydropyrrolo[3,4-c]pyrrol-2(1H)-yl)-4-(trifluoromethyl)benzyl)piperazine-1-carboxylate] | < 100 | > 1000 |  | 
CCN1CCC2(CCN(c3cc(Cl)ccc3CN3CCN(C(=O)OC(C(F)(F)F)C(F)(F)F)CC3)CC2)C1 [Example 170, 1,1,1,3,3,3-Hexafluoropropan-2-yl 4-(4-chloro-2-(2-ethyl-2,8-diazaspiro[4.5]decan-8-yl)benzyl)piperazine-1-carboxylate] | 100 to 1000 | > 1000 |  | 
O=C(OC(C(F)(F)F)C(F)(F)F)N1CCC2(CCCN2C(=O)c2ccc(C(F)(F)F)cc2)CC1 [Example 83, 1,1,1,3,3,3-Hexafluoropropan-2-yl 1-(4-(trifluoromethyl)benzoyl)-1,8-diazaspiro[4.5]decane-8-carboxylate] | < 100 | 100 to 1000 |  | 
O=C(OC(C(F)(F)F)C(F)(F)F)N1CCC2(CC1)CN(Cc1c(Cl)cccc1N1CCCC1)C2 [Example 42, 1,1,1,3,3,3-Hexafluoropropan-2-yl 2-(2-chloro-6-(pyrrolidin-1-yl)benzyl)-2,7-diazaspiro[3.5]nonane-7-carboxylate] | < 100 | 100 to 1000 |  | 
CN1CCCC12CCN(c1cc(C(F)(F)F)ccc1CN1CCN(C(=O)OC(C(F)(F)F)C(F)(F)F)CC1)CC2 [Example 215, 1,1,1,3,3,3-Hexafluoropropan-2-yl 4-(2-(1-methyl-1,8-diazaspiro[4.5]decan-8-yl)-4-(trifluoromethyl)benzyl)piperazine-1-carboxylate] | 100 to 1000 | > 1000 |  | 
CC(=O)N1CCCC12CCN(c1cc(Cl)ccc1CN1CCN(C(=O)OC(C(F)(F)F)C(F)(F)F)CC1)CC2 [Example 204, 1,1,1,3,3,3-Hexafluoropropan-2-yl 4-(2-(1-acetyl-1,8-diazaspiro[4.5]decan-8-yl)-4-chlorobenzyl) piperazie-1-carboxylate] | 100 to 1000 | > 1000 |  | 
O=C(OC(C(F)(F)F)C(F)(F)F)N1CCC2(CC1)CN(Cc1c(Cl)cccc1N1CCC(F)CC1)C2 [Example 47, 1,1,1,3,3,3-Hexafluoropropan-2-yl 2-(2-chloro-6-(4-fluoropiperidin-1-yl)benzyl)-2,7-diazaspiro[3.5]nonane-7-carboxylate] | < 100 | < 100 |  | 
CC(=O)N1CC2CN(c3cc(Cl)ccc3CN3CCN(C(=O)OC(C(F)(F)F)C(F)(F)F)CC3)CC2C1 (centres unmarked) [Example 202, 1,1,1,3,3,3-Hexafluoropropan-2-yl 4-(2-(5-acetylhexahydro-pyrrolo[3,4-c]pyrrol-2(1H)-yl)-4-chlorobenzyl) piperazine-1-carboxylate] | 100 to 1000 | > 1000 |  | 
CS(=O)(=O)N1CCc2cccc(CN3CCC4(CC3)CCN(C(=O)OC(C(F)(F)F)C(F)(F)F)C4)c2C1 [Example 217, 1,1,1,3,3,3-Hexafluoropropan-2-yl 8-((2-(methylsulfonyl)-1,2,3,4-tetrahydroisoquinolin-8-yl)methyl)-2,8-diazaspiro[4.5]decane-2-carboxylate] | < 100 | 100 to 1000 |  | 
CCN1CC2(CCN(c3cc(Cl)ccc3CN3CCN(C(=O)OC(C(F)(F)F)C(F)(F)F)CC3)C2)C1 [Example 173, 1,1,1,3,3,3-Hexafluoropropan-2-yl 4-(4-chloro-2-(2-ethyl-2,6-diazaspiro[3.4]octan-6-yl)benzyl)piperazine-1-carboxylate] | 100 to 1000 | > 1000 |  | 
O=C(OC(C(F)(F)F)C(F)(F)F)N1CCC2(CC1)CN(Cc1ccc(C(F)(F)F)cc1N1CCOCC1)C2 [Example 36, 1,1,1,3,3,3-Hexafluoropropan-2-yl 2-(2-morpholino-4-(trifluoromethyl)benzyl)-2,7-diazaspiro[3.5]nonane-7-carboxylate] | < 100 | 100 to 1000 |  | 
CC(=O)N1CCCc2cccc(CN3CCC4(CC3)CCN(C(=O)OC(C(F)(F)F)C(F)(F)F)C4)c21 [Example 193, 1,1,1,3,3,3-Hexafluoropropan-2-yl 8-((1-acetyl-1,2,3,4-tetrahydroquinolin-8-yl)methyl)-2,8-diazaspiro[4.5]decane-2-carboxylate] | > 1000 | > 1000 |  | 
O=C(OC(C(F)(F)F)C(F)(F)F)N1CCC2(CC1)CN(Cc1ccc(N3CCCC3)cc1)C2 [Example 80, 1,1,1,3,3,3-Hexafluoropropan-2-yl 2-(4-(pyrrolidin-1-yl)benzyl)-2,7-diazaspiro[3.5]nonane-7-carboxylate] | < 100 | > 1000 |  | 
O=C(OC(C(F)(F)F)C(F)(F)F)N1CCC2(CC1)CN(Cc1c(N3CCOCC3)cccc1C(F)(F)F)C2 [Example 43, 1,1,1,3,3,3-Hexafluoropropan-2-yl 2-(2-morpholino-6-(trifluoromethyl)benzyl)-2,7-diazaspiro[3.5]nonane-7-carboxylate] | < 100 | 100 to 1000 |  | 
CCN1CCCc2cccc(CN3CCC4(CC3)CN(C(=O)OC(C(F)(F)F)C(F)(F)F)C4)c21 [Example 31, 1,1,1,3,3,3-Hexafluoropropan-2-yl 7-((1-ethyl-1,2,3,4-tetrahydroquinolin-8-yl)methyl)-2,7-diazaspiro[3.5]nonane-2-carboxylate] | > 1000 | 100 to 1000 |  | 
O=C(OC(C(F)(F)F)C(F)(F)F)N1CCC2(CC1)CN(Cc1cccc(Oc3ccccc3)c1)C2 [Example 78, 1,1,1,3,3,3-Hexafluoropropan-2-yl 2-(3-phenoxybenzyl)-2,7-diazaspiro[3.5]nonane-7-carboxylate] | < 100 | < 100 |  | 
CC(=O)N1CCCC12CCN(c1cc(C(F)(F)F)ccc1CN1CCN(C(=O)OC(C(F)(F)F)C(F)(F)F)CC1)CC2 [Example 208, 1,1,1,3,3,3-Hexafluoropropan-2-yl 4-(2-(1-acetyl-1,8-diazaspiro[4.5]decan-8-yl)-4-(trifluoromethyl)benzyl)piperazine-1-carboxylate] | 100 to 1000 | > 1000 |  | 
O=C(OC(C(F)(F)F)C(F)(F)F)N1CCC2(CC1)CN(Cc1cccc(C(F)(F)F)c1)C2 [Example 89, 1,1,1,3,3,3-Hexafluoropropan-2-yl 2-(3-(trifluoromethyl)benzyl)-2,7-diazaspiro[3.5]nonane-7-carboxylate] | < 100 | < 100 |  | 
O=C(OC(C(F)(F)F)C(F)(F)F)N1CC2(CCN(Cc3c(N4CCCC4)cccc3C(F)(F)F)CC2)C1 [Example 148, 1,1,1,3,3,3-Hexafluoropropan-2-yl 7-(2-(pynrolidin-1-yl)-4-(trifluoromethyl)benzyl)-2,7-diazaspiro[3.5]nonane-2-carboxylate] | 100 to 1000 | 100 to 1000 |  | 
O=C(OC(C(F)(F)F)C(F)(F)F)N1CCC2(CCN(Cc3ccc(C(F)(F)F)cc3N3CC4COCC4C3)CC2)C1 (centres unmarked) [Example 188, 1,1,1,3,3,3-Hexafluoropropan-2-yl 8-(2-(tetrahydro-1H-furo[3,4-c]pyrrol-5(3H)-yl)-4-(trifluoromethyl)benzyl)-2,8-diazaspiro[4.5]decane-2-carboxylate] | 100 to 1000 | > 1000 |  | 
CN1CC2(CCN(c3cc(Cl)ccc3CN3CCN(C(=O)OC(C(F)(F)F)C(F)(F)F)CC3)C2)C1 [Example 169, 1,1,1,3,3,3-Hexafluoropropan-2-yl 4-(4-chloro-2-(2-methyl-2,6-diazaspiro[3.4]octan-6-yl)benzyl)piperazine-1-carboxylate] | 100 to 1000 | > 1000 |  | 
O=C(O)C1CCN(c2ccc(CN3CCC4(CC3)CN(C(=O)OC(C(F)(F)F)C(F)(F)F)C4)cc2)CC1 [Example 66, 1-(4-((2-(((1,1,1,3,3,3-Hexafluoropropan-2-yl)oxy)carbonyl)-2,7-diazaspiro[3.5]nonan-7-yl)methyl)phenyl) piperidine-4-carboxylic acid] |  |  | ## (## is between 25 and 75%) | ### (### is ≥ 75%)
O=C(OC(C(F)(F)F)C(F)(F)F)N1CCC2(CC1)CN(Cc1ccc(Cl)cc1N1CCCCC1)C2 [Example 38, 1,1,1,3,3,3-Hexafluoropropan-2-yl 2-(4-chloro-2-(piperidin-1-yl)benzyl)-2,7-diazaspiro[3.5]nonane-7-carboxylate] | 100 to 1000 | 100 to 1000 |  | 
CS(=O)(=O)N1CC2CN(c3cc(C(F)(F)F)ccc3CN3CCN(C(=O)OC(C(F)(F)F)C(F)(F)F)CC3)CC2C1 (centres unmarked) [Example 201, 1,1,1,3,3,3-Hexafluoropropan-2-yl 4-(2-(5-(methylsulfonyl)hexahydropyrrolo[3,4-c]pyrrol-2(1H)-yl)-4-(trifluoromethyl)benzyl)piperazine-1-carboxylate] | < 100 | > 1000 |  | 

Source: US20210214375A1 (LUNDBECK LA JOLLA RESEARCH CENTER, INC., priority 2017, published 2021)
